Experimental data taken from patent US12697366B2, “Thermogenic compositions and methods” (Ohio State Innovation Foundation, priority 2016, dated 2026).

Tests used:
PPARα-LBD = PPARα-LBD luciferase reporter in transiently transfected HEK293 cells; assay type: cell-based, human; details: EREG 50 ng/mL; EGFR-I 10 μM, MAPK-I 10 μM, HSL-I 10 μM, SRC-I 1 μM, PI3K-I 100 nM
Procedure: FIGS. 11A to 11I show adipokine Ereg is bilaterally associated with obesity and thermogenesis and activates PPARα. […] Microarray gene analysis was performed using Affymetrix microarray. FIG. 11B: Ereg expression was measured in non-differentiated and differentiated (day 5) 3T3-L1 adipocytes (Mann-Whitney test) using a customized NanoString mouse panel. FIG. 11C: Ereg expression was measured in differentiated (day 5) 3T3-L1 and Aldh1a1^−/− adipocytes by Taqman and normalized to TATA box protein (TBP). FIG. 11D: Plasma EREG concentrations were measured in mice from Study 1 by western blot. […] FIG. 11E: Plasma EREG concentrations were measured and quantified in iAb of WT and ob/ob mice from Study 2 by western blot (n=5 per each group). […] FIG. 11F: EREG was measured in iAb, subcutaneous and brown fat by western blot. Fat pads were dissected from WT mice on regular chow (Study 1). FIG. 11G: Ucp2 and Ucp1 expression was measured in differentiated 3T3-L1 adipocytes (day 5) stimulated with vehicle (PBS) or recombinant EREG (50 ng/mL) added in the differentiation medium I and II. Expression level were measured by Taqman and normalized by TBP. FIGS. 11H and 11I: HEK293 cells were transiently transfected with PPARα-LBD, UASTK-luciferase, and renilla. […] Data represents % PPARα-LBD activation. Asterisks indicate significant difference (p<0.05) compared to vehicle control, #, indicates statistical difference between PPARα-LBD activation by EREG alone and in the presence of inhibitors. Data represent mean±SD. The Mann-Whitney test was used throughout these studies for group comparison.
HEK293 cells ([…] cells, 24-well plates) were used for transient transfection experiments. Cells were transfected with human PPARα-LBD construct, yeast UASTK luciferase reporter (SwitchGear Genomics, Menlo Park, CA), using Fugene (Roche Applied Science, Indianapolis, IN). Transfections were carried out in OptiMeM (Invitrogen, Carlsbad, CA) medium for 12 hours as described previously. Luciferase was measured using Promega assay according to manufacturer's instructions

[1] = test system: iAb (omental) fat explants; test: LEP release from iAb (omental) fat explants of an obese patient (ELISA); assay type: cell-based, human; details: EGFR-I, MAPK-I, PI3K-I
Procedure: FIGS. 14A to 14N show EREG induces expression of thermogenic and PPARα-target genes, suppresses inflammatory genes, and stimulates leptin secretion. FIGS. 14A to 14H and 14L: Markers for thermogenesis, adipogenesis, and inflammatory genes were analyzed using homogenates from whole iAb fat pads isolated from Veh- (white bars) and EREG-treated (black bars) DIO mice (Study 3). Gene expression was quantified using a customized NanoString panel. Data represent mean±SD, n.s.,—non-significant. FIG. 14I: LEP was measured in plasma in the same mice by ELISA. Data (mean±SD) are shown as percent to control (Veh, 100%) and is indicated as a dashed line. FIG. 14J: LEP release after stimulation with different concentrations of recombinant human EREGs was measured in explants of iAb (omental) tissue obtained from an obese insulin resistant patient. FIG. 14K: LEP release after stimulation of explants from same donor with and without EREG (50 ng/mL) in the presence and absence of insulin (Ins, 10 μg/mL), MAPK-I, EGFR-I, PI3K-I. Inhibitors concentrations were described in FIG. 1. FIG. 14M: LEP release after stimulation of iAb fat explants (2 h) from WT mice with different concentrations of recombinant mouse EREG. Experiment was repeated in three different WT mice. Data (mean±SD) are shown as percent to control (Veh, 100%). FIG. 14N: LEP release following stimulation of iAb fat explants (2 h) from WT mice with inhibitors of EGFR (10 μM) and MAPK (10 μM) in the presence or absence of EREG (50 ng/ml). Data (mean±SD) are shown as percent to control (Veh, 100%).
Abdominal fat tissue obtained from an obese patient was excised into 35 mg sections for stimulation with EREG. Explants were stimulated with EREG in DMEM containing 1% FBS for 2 h. Media was collected after 2 h, lyophilized and reconstituted in 120 μL deionized water for leptin detection using ELISA kit (Alpco, Salem, NH).

3T3-L1 adipocytes = test: LTA axon guidance gene expression in 3T3-L1 adipocytes (NanoString mouse innervation panel); assay type: cell-based; details: 24 hrs; for Efna5 and Epha4 expression: TTNPB 50 nM or BMS493 100 nM
Procedure: FIG. 5A to 5I show retinoids regulate the LTA axon guiding secretome via ephrin A5. FIG. 5A: DRG neurons were cultured in DRG culture medium with secretome from Aldh1a1^−/− adipocytes (1/1, v/v) that were treated with or without RA (100 nM). RA was added to Aldh1a1^−/− differentiation medium (Day 0, 2, 5). To prepare this secretome, medium was collected for last 24 hours. Representative images were selected from three independent experiments. Average neurite growth indices were measured by XTI microscopy in DRG neurons in DRG culture medium containing veh (white bar), NGF (vertical lined bar), or Aldh1a1^−/− secretome treated without (black bar) or with RA (hatched bar). An asterisk indicates P<0.05; Mann-Whitney U test. FIG. 5B: 3T3-L1 adipocytes (n=3) were cultured in differentiation medium for 4 days. At day 5, medium was replaced by UV-treated 1% FBS-contained DMEM with and without Rald (30 nM). 24 hrs post stimulation, cells were harvested for mRNA. The gene expression was measured by the customized NanoString mouse innervation panel. […] Gene expression was measured by the NanoString mouse innervation panel. […] Protein levels of ephrin-A5 ligand (EFNA5) in medium EFNA5 and β-actin in cell lysates were analyzed by Western blot at Day 0, 2, 4, and 6. FIG. 5F: Plasma from WT and Aldh1a1^−/− mice (Table 1, Study 4) was measured by EFNA5 ELISA (n=5 per group) Table 1, Study 4. […] FIG. 5H: Tyrosine hydroxylase (TH) protein levels was analyzed in whole subcutaneous (Western blot insert) and iAb fat pads from mice injected with PBS (n=3) or EFNA5 (n=4, Table 1, Study 5) by Western blot. […] FIG. 5I: Heat (metabolic rate) was measured in PBS- and EFNA5-injected mice from Study 4 after 4° C. exposure by an open circuit indirect calorimetry treadmill (basal metabolic rate for 42 h is shown in FIG. 9C). […]
NanoString's nCounter analysis (NanoString Technologies) system performed direct detection of target molecules from a single sample using color-coded molecular barcodes, giving a digital quantification of the number of target molecules as described before (Shen et al., 2015, PMID: 25620076). […]

3T3-L1 preadipocytes = test: FD-glucose uptake in 3T3-L1 preadipocytes; assay type: cell-based, mouse; details: 30 mins; insulin 10 μg/ml, EREG 50 ng/ml, forskolin 4 μg/ml
Procedure: Non-differentiated, 90% confluent 3T3-L1 cells were starved with glucose-deprived medium for 40 min. Then cells were treated in the presence and absence of different concentrations of nanoscaffold #2 and bovine insulin (200 μg/mL), all of reagents dissolved in the same glucose-deprived medium but containing fluorescent-D (FD)-glucose for 80 min. Thereafter, the FD glucose uptake was measured according to manufacturer's instructions (Cayman Chemical, USA, cat #600471). […] Non-differentiated, 90% confluent 3T3-L1 cells treated in the presence and absence of different concentrations of nanoscaffold #2 and bovine insulin (10 μg/mL) or mouse epiregulin (EREG, 0.05 μg/mL) and incubated for 24 h. Then cells were starved with glucose-deprived medium for 40 min and, then incubated with fluorescent-D (FD)-glucose for 80 min. Thereafter, the FD glucose uptake was measured according to manufacturer's instructions (Cayman Chemical, USA, cat #600471). Data are shown as percent of uptake in the presence of insulin (100%).
Non-differentiated, 90% confluent 3T3-L1 cells treated in the presence of bovine insulin (10 μg/mL), mouse epiregulin (EREG, 0.05 μg/mL), or their combinations and incubated for 24 h. Then cells were starved with glucose-deprived medium for 40 min and, then incubated with fluorescent-D (FD)-glucose for 80 min. Thereafter, the FD glucose uptake was measured according to manufacturer's instructions (Cayman Chemical, USA, cat #600471).
Non-differentiated, 90% confluent 3T3-L1 cells were starved with glucose-deprived medium for 50 min. Then cells were treated in the presence and absence of different concentrations of mouse recombinant IGFBP4 with and without nanoscaffold #2 and human insulin (10 μg/mL). All of reagents were dissolved in the same glucose-deprived medium but containing fluorescent-D (FD)-glucose for 90 min. Thereafter, the FD glucose uptake was measured according to manufacturer's instructions (Cayman Chemical, USA, cat #600471).
Glucose uptake assay was performed using glucose uptake cell-based assay kit (Cayman Chemical, Ann Arbor, MI). 3T3-L1 or human preadipocytes were cultured at a density of 5×10^4 per well into a 96-well plate (n=7) in high glucose media and grown overnight. Old cell culture medium was removed the next day and washed with PBS to remove residual glucose. Supplied 2-deoxy-2-[(7-nitro-2,1,3-benzoxadiazol-4-yl)amino]-D-glucose) (2-NBDG) was diluted to 150 μg/mL in DMEM medium without glucose, phenol red, L-glutamine, sodium pyruvate, and HEPES (Life technologies, Grand Island, New York). 100 μL of 2-NBDG glucose free medium with or without recombinant EREG and other treatments was added to the plated cells. After incubating at 37° C. for 30 minutes, cells were washed gently two times with 200 μL of glucose assay buffer. 100 μL of the assay buffer was added to each well and measured for fluorescence at an excitation/emission of 485/535 nm.
Fluorescence glucose uptake (FD-glucose assay) was performed as described PMID: 32065973, using insulin, 1.7 μM and different AACs at concentration 0.1 μM.
FD-glucose uptake in mouse 3T3-L1 preadipocytes (n=8 per treatment) treated with vehicle (Veh; PBS, open bar) or hINS (1.7 μM), mouse leptin (mLep; 12.5 nM, hatched bar), or AAC2 (0.1 μM black bar) in the presence and absence of GLUT1 inhibitor (BAY-876; 10 nM in DMSO). Cells were pre-treated with or without BAY-876 for 40 min and then FD glucose and treatment reagents were added for additional 80 min of incubation. Data (%) was normalized to FD-glucose uptake in control (Veh) 3T3-L1 cells without inhibitor (100%). Student's independent t-test.

N#CC(=C(/N)Sc1ccccc1N)/C(C#N)=C(\N)Sc1ccccc1N [MAPK inhibitor, U0126]
EREG-dependent PPARα-LBD activation in the presence of inhibitor (PPARα-LBD): abolished
EREG / insulin mediated LEP release in the presence of inhibitor [1]: inhibited

COc1nn(-c2ccc(NC(=O)OCc3ccccc3)c(C)c2)c(=O)o1 [HSL inhibitor, CAY10499]
EREG-dependent PPARα-LBD activation in the presence of inhibitor (PPARα-LBD): abolished

COc1ccc(Cl)c(Nc2ncnc3cc(OCC4CCN(C)CC4)c(OC)cc23)c1 [SRC inhibitor, AZM475271]
EREG-dependent PPARα-LBD activation in the presence of inhibitor (PPARα-LBD): now effect

C/C(=C\c1ccc(C(=O)O)cc1)c1ccc2c(c1)C(C)(C)CCC2(C)C [TTNPB]
Efna5 and Epha4 expression (3T3-L1 adipocytes): suppressed

COc1cc2ncnc(Nc3cccc(Cl)c3)c2cc1OC [EGFR inhibitor, Tyrphostin AG1478]
EREG-dependent PPARα-LBD activation in the presence of inhibitor (PPARα-LBD): abolished
EREG / insulin mediated LEP release in the presence of inhibitor [1]: inhibited

CC1=C(/C=C/C(C)=C/C=C/C(C)=C/C=O)C(C)(C)CCC1 [retinaldehyde]
expression of molecules associated with the LTA-axon guidance secretome (3T3-L1 adipocytes; Rald 30 nM): significantly increased

CC1(C)CC=C(C#Cc2ccccc2)c2cc(/C=C/c3ccc(C(=O)O)cc3)ccc21 [BMS429]
Efna5 and Epha4 expression (3T3-L1 adipocytes): induced

C=C[C@@]1(C)CC(=O)[C@]2(O)[C@@]3(C)[C@@H](O)CCC(C)(C)[C@@H]3[C@H](O)[C@H](OC(C)=O)[C@@]2(C)O1 [forskolin, reference compound]
glucose uptake compared to non-stimulated 3T3-L1 preadipocytes (3T3-L1 preadipocytes): 245%
